This passage reports Ap4A-RNA decapping activity results from patent US20250049894A1, “TREATMENT OF NUDT2 MUTATION” (UNIVERSITÉ DE GENÈVE, priority 2021, published 2025).

The test deals with Ap4A-RNA. As to the kind of experiment: In vitro Ap4A-RNA decapping assay (cap-labelled RNA, thin-layer chromatography). The format is biochemical. To be noted: recombinant protein 250 nM to 750 nM, 37° C., 30 min, TLC. How it is done:
Briefly, using the Ap4A mixture (ATP and Ap4A) or Ap4A instead of ATP for in vitro transcription by MEGAshortscript™ T7 Transcription Kit (Life technologies; Cat. No. AM1354), we produced a 50 nt RNA. Template is the same as making 50 nt RNA for MEFs transfection. Note that if the mixture is used, this nucleotide mixture (ATP and Ap4A) still has all the components (lysine, inorganic pyrophosphatase etc) added during the Ap4A synthesis. In vitro transcription reaction was carried out at 37° C. for at least 4 h in a 20 μL reaction containing 6 pmol DNA template, 2 μL 10× reaction buffer, 2 μL of nucleotides (75 mM CTP, 75 mM UTP, 75 mM GTP), 2 μL of ATP/Ap4A mixture that we produced above, and 2 μL T7 enzyme mix (MEGAshortscript™ Kit, Life technologies, Cat. No. AM1354). After that, 1 μL TURBO DNase was added and incubated at 37° C. for 15 min to remove the DNA template. Unincorporated nucleotides were removed from the RNA preparation by Microspin G-25 Column (GE Healthcare, Cat. No. 27-5325-01), and the process was repeated twice. The radioactively labelled RNA was separated by 10% urea gel. […]
Decapping reaction products were resolved by PEI-cellulose TLC plates (Merk, Cat. No. 1057250001) and developed in 0.45 M (NH4)2SO4 in a glass chamber at room temperature. […] When required, signals were quantified by ImageQuantTL.

For “DCP2 (NUDT20): recombinant untagged mouse DCP2 catalytic core domain (95-260 aa)”, the Ap4A-RNA decapping activity result is “only NUDT2 has Ap4A-RNA decapping activity”.
